Data from patent publication US20230055237A1, “COMPOUNDS AND METHODS FOR THE TREATMENT OF CYSTIC FIBROSIS” (Flatley Discovery Lab, LLC, priority 2019, published 2023).

Target: T1, CFTR (Homo sapiens, UniProt P13569, DEL508-508)
T1 construct: Primary CF airway epithelial cells were obtained from the UNC Cystic Fibrosis Tissue Procurement and Cell Culture Core; host or cells: primary CF airway epithelial cells, differentiated at the air-liquid interface
Assay: Equivalent current assay in primary CF airway epithelial cells (NAUC, combination with 1st site corrector FDL169 or VX-809)
Assay type: cell-based
Conditions: 37° C., 24 h; for Nauc @ 3 μM: test compound 3 μM in combination with 1st site corrector VX-809 (3 μM); for Nauc @ 10 μM: test compound 10 μM in combination with 1st site corrector VX-809 (3 μM)

T1 sequence (P13569 with tags, fused parts or gaps DEL508-508): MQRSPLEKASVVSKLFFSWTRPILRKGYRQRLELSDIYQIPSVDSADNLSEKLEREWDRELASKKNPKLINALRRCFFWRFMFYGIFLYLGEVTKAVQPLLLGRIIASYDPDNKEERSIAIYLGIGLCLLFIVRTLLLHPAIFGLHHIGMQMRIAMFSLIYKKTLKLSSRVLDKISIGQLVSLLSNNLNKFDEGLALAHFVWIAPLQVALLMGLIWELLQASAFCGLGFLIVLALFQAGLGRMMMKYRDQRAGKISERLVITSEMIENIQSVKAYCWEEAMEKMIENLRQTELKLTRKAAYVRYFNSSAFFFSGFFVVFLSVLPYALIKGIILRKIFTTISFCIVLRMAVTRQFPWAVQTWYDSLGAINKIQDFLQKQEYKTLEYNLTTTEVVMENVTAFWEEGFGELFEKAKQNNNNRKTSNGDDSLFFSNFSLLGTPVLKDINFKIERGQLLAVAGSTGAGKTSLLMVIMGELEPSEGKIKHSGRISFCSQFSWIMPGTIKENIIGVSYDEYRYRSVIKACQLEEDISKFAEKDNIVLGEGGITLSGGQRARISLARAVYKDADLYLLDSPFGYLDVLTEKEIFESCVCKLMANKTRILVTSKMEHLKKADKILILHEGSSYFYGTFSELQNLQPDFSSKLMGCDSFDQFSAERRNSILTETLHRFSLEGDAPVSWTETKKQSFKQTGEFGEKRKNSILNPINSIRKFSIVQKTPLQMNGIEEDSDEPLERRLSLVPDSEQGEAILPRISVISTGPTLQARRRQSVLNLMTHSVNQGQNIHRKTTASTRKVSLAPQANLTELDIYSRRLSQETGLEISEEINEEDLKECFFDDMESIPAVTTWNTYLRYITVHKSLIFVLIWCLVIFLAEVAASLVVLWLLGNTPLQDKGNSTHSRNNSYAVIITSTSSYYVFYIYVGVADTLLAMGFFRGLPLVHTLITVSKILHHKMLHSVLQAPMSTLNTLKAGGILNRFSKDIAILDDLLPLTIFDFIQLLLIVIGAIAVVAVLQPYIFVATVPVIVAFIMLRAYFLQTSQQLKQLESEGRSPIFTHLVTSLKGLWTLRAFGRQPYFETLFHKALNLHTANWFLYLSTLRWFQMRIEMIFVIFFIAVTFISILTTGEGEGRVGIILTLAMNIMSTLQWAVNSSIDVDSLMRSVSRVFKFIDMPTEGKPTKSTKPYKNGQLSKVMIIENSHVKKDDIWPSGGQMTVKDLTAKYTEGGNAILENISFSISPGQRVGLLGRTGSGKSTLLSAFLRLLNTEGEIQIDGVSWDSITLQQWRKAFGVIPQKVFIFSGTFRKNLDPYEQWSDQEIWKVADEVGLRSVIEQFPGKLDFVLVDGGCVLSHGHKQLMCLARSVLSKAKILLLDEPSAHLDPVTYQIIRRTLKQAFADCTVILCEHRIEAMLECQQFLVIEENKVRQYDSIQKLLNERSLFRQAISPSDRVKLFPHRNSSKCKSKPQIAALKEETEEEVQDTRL

O=C(Nc1cc(Cl)cc(Cl)c1)C1C(COCc2ccccc2)NC2(C(=O)Nc3c(Cl)cc(Cl)cc32)C1C(=O)O (stereo not drawn) [Example 32]
Nauc @ 3 μM: +++ (NAUC “+++” refers to an observed NAUC>170% of positive control)
Nauc @ 10 μM: +++ (NAUC “+++” refers to an observed NAUC>170% of positive control)

CC(C)C1NC2(C(=O)Nc3c(Cl)cc(Cl)cc32)C(C(=O)O)C1C(=O)Nc1cc(Cl)cc(Cl)c1 (stereo not drawn) [Example 33]
Nauc @ 3 μM: +++ (NAUC “+++” refers to an observed NAUC>170% of positive control)
Nauc @ 10 μM: +++ (NAUC “+++” refers to an observed NAUC>170% of positive control)

O=C(Nc1cc(Cl)cc(Cl)c1)C1C(Cc2ccccc2)NC2(C(=O)Nc3c(Cl)cc(Cl)cc32)C1C(=O)O (stereo not drawn) [Example 34]
Nauc @ 3 μM: +++ (NAUC “+++” refers to an observed NAUC>170% of positive control)
Nauc @ 10 μM: ++ (NAUC “++” refers to an observed NAUC 170-140% of positive control)

O=C(Nc1cc(Cl)cc(Cl)c1)C1C(C(F)(F)F)NC2(C(=O)Nc3c(Cl)cc(Cl)cc32)C1C(=O)O (stereo not drawn) [Example 35]
Nauc @ 3 μM: +++ (NAUC “+++” refers to an observed NAUC>170% of positive control)
Nauc @ 10 μM: +++ (NAUC “+++” refers to an observed NAUC>170% of positive control)

CC(=O)N1C(COCc2ccccc2)C(C(=O)Nc2cc(Cl)cc(Cl)c2)C(C(=O)O)C12C(=O)Nc1c(Cl)cc(Cl)cc12 (stereo not drawn) [Example 36]
Nauc @ 3 μM: + (NAUC “+” refers to an observed NAUC <140% of positive control)
Nauc @ 10 μM: +++ (NAUC “+++” refers to an observed NAUC>170% of positive control)

O=C(Nc1cc(Cl)cc(Cl)c1F)C1C2CCCN2C2(C(=O)Nc3c(Cl)cc(Cl)cc32)C1C(=O)O (stereo not drawn) [Example 37]
Nauc @ 3 μM: +++ (NAUC “+++” refers to an observed NAUC>170% of positive control)
Nauc @ 10 μM: +++ (NAUC “+++” refers to an observed NAUC>170% of positive control)

CC(=O)N1C(C(C)C)C(C(=O)Nc2cc(Cl)cc(Cl)c2)C(C(=O)O)C12C(=O)Nc1c(Cl)cc(Cl)cc12 (stereo not drawn) [Example 38]
Nauc @ 3 μM: + (NAUC “+” refers to an observed NAUC <140% of positive control)
Nauc @ 10 μM: ++ (NAUC “++” refers to an observed NAUC 170-140% of positive control)

O=C(Nc1cc(Cl)cc(Cl)c1)C1C(C(F)(F)c2ccccc2)NC2(C(=O)Nc3c(Cl)cc(Cl)cc32)C1C(=O)O (stereo not drawn) [Example 39]
Nauc @ 3 μM: +++ (NAUC “+++” refers to an observed NAUC>170% of positive control)
Nauc @ 10 μM: +++ (NAUC “+++” refers to an observed NAUC>170% of positive control)

O=C(Nc1cc(Cl)cc(Cl)c1)C1C(C(F)(F)F)NC2(C(=O)Nc3c(Cl)cc(Cl)cc32)C1C(=O)O (stereo not drawn) [Example 40]
Nauc @ 3 μM: +++ (NAUC “+++” refers to an observed NAUC>170% of positive control)
Nauc @ 10 μM: +++ (NAUC “+++” refers to an observed NAUC>170% of positive control)

O=C(Nc1cc(Cl)cc(Cl)c1)C1CN(CC(F)(F)F)C2(C(=O)Nc3c(Cl)cc(Cl)cc32)C1C(=O)O (stereo not drawn) [Example 41]
Nauc @ 3 μM: + (NAUC “+” refers to an observed NAUC <140% of positive control)
Nauc @ 10 μM: ++ (NAUC “++” refers to an observed NAUC 170-140% of positive control)

O=C(Nc1cc(Cl)cc(Cl)c1F)C1C2CC(F)(F)CN2C2(C(=O)Nc3c(Cl)cc(Cl)cc32)C1C(=O)O (stereo not drawn) [Example 42]
Nauc @ 3 μM: +++ (NAUC “+++” refers to an observed NAUC>170% of positive control)
Nauc @ 10 μM: +++ (NAUC “+++” refers to an observed NAUC>170% of positive control)

CN1C(C(F)(F)F)C(C(=O)Nc2cc(Cl)cc(Cl)c2)C(C(=O)O)C12C(=O)Nc1c(Cl)cc(Cl)cc12 (stereo not drawn) [Example 43]
Nauc @ 3 μM: +++ (NAUC “+++” refers to an observed NAUC>170% of positive control)
Nauc @ 10 μM: ++ (NAUC “++” refers to an observed NAUC 170-140% of positive control)

CC(C)(C)c1cccc(CCNC(=O)C2C(C(F)(F)F)NC3(C(=O)Nc4c(Cl)cc(Cl)cc43)C2C(=O)O)c1 (stereo not drawn) [Example 45]
Nauc @ 3 μM: +++ (NAUC “+++” refers to an observed NAUC>170% of positive control)
Nauc @ 10 μM: +++ (NAUC “+++” refers to an observed NAUC>170% of positive control)

CC(C)(C)c1ccc(CCNC(=O)C2C3CC(F)(F)CN3C3(C(=O)Nc4c(Cl)cc(Cl)cc43)C2C(=O)O)cc1 (stereo not drawn) [Example 46]
Nauc @ 3 μM: +++ (NAUC “+++” refers to an observed NAUC>170% of positive control)
Nauc @ 10 μM: +++ (NAUC “+++” refers to an observed NAUC>170% of positive control)

Cc1ccccc1CCNC(=O)C1C2CC(F)(F)CN2C2(C(=O)Nc3c(Cl)cc(Cl)cc32)C1C(=O)O (stereo not drawn) [Example 47]
Nauc @ 3 μM: ++ (NAUC “++” refers to an observed NAUC 170-140% of positive control)
Nauc @ 10 μM: +++ (NAUC “+++” refers to an observed NAUC>170% of positive control)

Cc1cccc(CCNC(=O)C2C3CC(F)(F)CN3C3(C(=O)Nc4c(Cl)cc(Cl)cc43)C2C(=O)O)c1 (stereo not drawn) [Example 48]
Nauc @ 3 μM: ++ (NAUC “++” refers to an observed NAUC 170-140% of positive control)
Nauc @ 10 μM: +++ (NAUC “+++” refers to an observed NAUC>170% of positive control)

Cc1ccc(CCNC(=O)C2C3CC(F)(F)CN3C3(C(=O)Nc4c(Cl)cc(Cl)cc43)C2C(=O)O)cc1 (stereo not drawn) [Example 49]
Nauc @ 3 μM: ++ (NAUC “++” refers to an observed NAUC 170-140% of positive control)
Nauc @ 10 μM: +++ (NAUC “+++” refers to an observed NAUC>170% of positive control)

O=C(NCCc1ccccc1Cl)C1C2CC(F)(F)CN2C2(C(=O)Nc3c(Cl)cc(Cl)cc32)C1C(=O)O (stereo not drawn) [Example 50]
Nauc @ 3 μM: ++ (NAUC “++” refers to an observed NAUC 170-140% of positive control)
Nauc @ 10 μM: +++ (NAUC “+++” refers to an observed NAUC>170% of positive control)

O=C(NCCc1cccc(Cl)c1)C1C2CC(F)(F)CN2C2(C(=O)Nc3c(Cl)cc(Cl)cc32)C1C(=O)O (stereo not drawn) [Example 51]
Nauc @ 3 μM: +++ (NAUC “+++” refers to an observed NAUC>170% of positive control)
Nauc @ 10 μM: +++ (NAUC “+++” refers to an observed NAUC>170% of positive control)

O=C(NCCc1ccc(Cl)cc1)C1C2CC(F)(F)CN2C2(C(=O)Nc3c(Cl)cc(Cl)cc32)C1C(=O)O (stereo not drawn) [Example 52]
Nauc @ 3 μM: ++ (NAUC “++” refers to an observed NAUC 170-140% of positive control)
Nauc @ 10 μM: +++ (NAUC “+++” refers to an observed NAUC>170% of positive control)

CC(C)(C)c1cccc(CCNC(=O)C2C3CCCN3C3(C(=O)Nc4c(Cl)cc(Cl)cc43)C2C(=O)O)c1 (stereo not drawn) [Example 53]
Nauc @ 3 μM: +++ (NAUC “+++” refers to an observed NAUC>170% of positive control)
Nauc @ 10 μM: +++ (NAUC “+++” refers to an observed NAUC>170% of positive control)

CC(C)(C)c1cccc(CNC(=O)C2C3CC(F)(F)CN3C3(C(=O)Nc4c(Cl)cc(Cl)cc43)C2C(=O)O)c1 (stereo not drawn) [Example 54]
Nauc @ 3 μM: + (NAUC “+” refers to an observed NAUC <140% of positive control)
Nauc @ 10 μM: +++ (NAUC “+++” refers to an observed NAUC>170% of positive control)

O=C(Nc1cc(C(F)(F)F)cc(C(F)(F)F)n1)C1C2C[C@@](O)(C(F)(F)F)CN2C2(C(=O)Nc3c(Cl)cc(Cl)cc32)C1C(=O)O (stereo partly drawn) [Example 55]
Nauc @ 3 μM: ++ (NAUC “++” refers to an observed NAUC 170-140% of positive control)
Nauc @ 10 μM: + (NAUC “+” refers to an observed NAUC <140% of positive control)

O=C(Nc1cc(Cl)cc(Cl)c1)C1C2C[C@@](O)(C(F)(F)F)CN2C2(C(=O)Nc3c(Cl)cc(Cl)cc32)C1C(=O)O (stereo partly drawn) [Example 56]
Nauc @ 3 μM: +++ (NAUC “+++” refers to an observed NAUC>170% of positive control)
Nauc @ 10 μM: +++ (NAUC “+++” refers to an observed NAUC>170% of positive control)

CN(C(=O)C1C2CC(F)(F)CN2C2(C(=O)Nc3c(Cl)cc(Cl)cc32)C1C(=O)O)c1cc(Cl)cc(Cl)c1 (stereo not drawn) [Example 57]
Nauc @ 3 μM: +++ (NAUC “+++” refers to an observed NAUC>170% of positive control)
Nauc @ 10 μM: +++ (NAUC “+++” refers to an observed NAUC>170% of positive control)

O=C(Nc1cc(Cl)cc(Cl)c1)C1C2C[C@@](O)(C(F)(F)F)CN2C2(C(=O)Nc3c(Cl)cc(Cl)cc32)C1C(=O)O (stereo partly drawn) [Example 58]
Nauc @ 3 μM: + (NAUC “+” refers to an observed NAUC <140% of positive control)
Nauc @ 10 μM: +++ (NAUC “+++” refers to an observed NAUC>170% of positive control)

O=C(Nc1cc(Cl)cc(Cl)c1)C1C2N(CCC2(F)F)C2(C(=O)Nc3c(Cl)cc(Cl)cc32)C1C(=O)O (stereo not drawn) [Example 59]
Nauc @ 3 μM: + (NAUC “+” refers to an observed NAUC <140% of positive control)
Nauc @ 10 μM: ++ (NAUC “++” refers to an observed NAUC 170-140% of positive control)

O=C(Nc1cc(Cl)cc(Cl)c1)C1C2N(CCC2(F)F)C2(C(=O)Nc3c(Cl)cc(Cl)cc32)C1C(=O)O (stereo not drawn) [Example 60]
Nauc @ 3 μM: +++ (NAUC “+++” refers to an observed NAUC>170% of positive control)
Nauc @ 10 μM: +++ (NAUC “+++” refers to an observed NAUC>170% of positive control)

Cc1ccccc1C(F)(F)C1NC2(C(=O)Nc3c(Cl)cc(Cl)cc32)C(C(=O)O)C1C(=O)Nc1cc(Cl)cc(Cl)c1 (stereo not drawn) [Example 61]
Nauc @ 3 μM: +++ (NAUC “+++” refers to an observed NAUC>170% of positive control)
Nauc @ 10 μM: +++ (NAUC “+++” refers to an observed NAUC>170% of positive control)

Cc1cccc(C(F)(F)C2NC3(C(=O)Nc4c(Cl)cc(Cl)cc43)C(C(=O)O)C2C(=O)Nc2cc(Cl)cc(Cl)c2)c1 (stereo not drawn) [Example 62]
Nauc @ 10 μM: +++ (NAUC “+++” refers to an observed NAUC>170% of positive control)

O=C(Nc1cc(Cl)cc(Cl)c1)C1C(C(F)(F)c2ccccc2Cl)NC2(C(=O)Nc3c(Cl)cc(Cl)cc32)C1C(=O)O (stereo not drawn) [Example 63]
Nauc @ 10 μM: +++ (NAUC “+++” refers to an observed NAUC>170% of positive control)
